Experimental data taken from ChEMBL document CHEMBL3507680, “University of Dundee, Gates Library screen for HepG2 cell viability”.

Assay: Human HepG2 cell viability assay in 384 well format
Assay type: toxicity, cell-based
Set-up: dose 125 nL, time 70.5 hour; concentration not given beside the values
Conditions: HepG2 cells, read-out: Inhibition

SMILES | cytotoxicity at 70.5 h [%]
CC(C)c1nnc(NC(=O)CCc2cc(F)ccc2F)[nH]1 | -16.3
CNc1cncc(C2CCCN2C(=O)c2ccc3c(c2)CCC3)n1 (centres undefined) | 9.47
Cc1nc([C@@H]2C[C@@H]3CCN(C(=O)c4occc4C)C[C@H]3O2)no1 | 23.8
CN(Cc1ccco1)C(=O)C1CSCN1C(=O)c1cccnc1 (centres undefined) | -15.1
Cc1cc(F)ccc1NC(=O)Cn1cc(C(=O)O)ccc1=O | -18.2
CN(C)c1cc(CNC(=O)c2ccc(Br)cc2F)ccn1 | -4.97
CC(=O)N1CC[C@H]2OCC[C@@H](C(=O)Nc3cccnc3C)[C@H]2C1 | -3.55
CCc1cc(NCCNc2ccncc2C)n2nc(C)c(C)c2n1 | -1.4
N#Cc1cccc(NS(=O)(=O)c2ccc(C(=O)O)cc2F)c1 | -13.8
COCCCC1CCCN(C(=O)CCc2csc(N)n2)C1 (centres undefined) | -11.8
Cn1cnc(S(=O)(=O)NCCCN2CCCC2)c1Cl | -4.58
CCn1cc(CN2C[C@H]3CC[C@@H]2CN(C(=O)c2ccncc2)C3)cn1 | 21
NS(=O)(=O)CCN(CCc1cccc(F)c1)C1CCCC1 | -0.787
Cc1c(C2CCOC(C)(C)C2)nc(N)c(C#N)c1-c1ccc(O)cc1 (centres undefined) | 11.3
Cc1cc(N(C)C)nc(C2CCNC2)n1 (centres undefined) | 45.3
CCN(CC)CC[C@H]1CN(C(=O)NC2CCCCC2)CC[C@H]1CC(=O)O | -1.74
CC(C)c1ccsc1C(=O)N1CCCN(Cc2cscn2)CC1 | 15.1
CC(C)OCCCNC(=O)C1CC(=O)N(c2n[nH]c3cccc(F)c23)C1 (centres undefined) | -23.7
CCCC(=O)N1CCC(c2nn(C)c(=O)n2-c2ccccc2)CC1 | -10.4
CN(C)CCN1C(=O)CCC12CCCN(C(=O)c1ccncc1F)C2 (centres undefined) | 15.9
Cc1cnn(CC2CCCN2C(=O)Cc2c(C)noc2C)c1 (centres undefined) | -14
CC(C)CN1C(=O)C2(CCCC2)NC12CCSCC2 | 0.871
Cc1oc(C(=O)O)cc1S(=O)(=O)Nc1cccc(-c2nccs2)c1 | 6.48

SMILES | cytotoxicity at 70.5 h [%]
Cc1cc(C(=O)N2C[C@@H]3COC[C@]3(CN(C)C)C2)c(C)o1 | -17.3
O=C(CCN1CCNCC1)N1CCC2(CC1)c1ccccc1CC2O (centres undefined) | -6.68
COc1cccc(CN2CCN(C(=O)CN3CCOCC3)CC2)n1 | 0.577
Cc1nc(CNC(C(=O)N2CCOCC2)C(C)C)oc1C (centres undefined) | -5.87
Cc1cc(C)c(CNC(=O)NCc2nnc3n2CCC3)c(=O)[nH]1 | 14.7
Cc1nn(C)c(C)c1C1CCCN1C(=O)c1ccc(N(C)C)nn1 (centres undefined) | -6.36
Cc1cccc(N(CC(=O)N2CCCCC2)Cc2nc(=O)[nH][nH]2)c1 | -0.474
O=C(O)c1cc(-c2ccoc2)cc(S(=O)(=O)N2CCSCC2)c1 | -4.7
O=S(=O)(CC1CC1)c1ncc(CN2CCOCC2)n1CC1CCCO1 (centres undefined) | -0.667
Cc1nc[nH]c1CN1CCN(C2CCOCC2)CC(C(N)=O)C1 (centres undefined) | -9.69
O=c1n(Cc2cccc(C(F)(F)F)c2)nc2ncccn12 | 24.8
CC1CCCN(CCNC(=O)c2cncnc2C(C)C)C1 (centres undefined) | -4.07
CCN(CC1CCOCC1)C(=O)C1CC(=O)N(Cc2cccnc2)C1 (centres undefined) | -5.23
CCOCC(=O)N1Cc2nccn2CC(CN(C)C)C1 (centres undefined) | 1.2
O=C(NCCCO)c1cnc(-c2ccccc2)nc1O | -2.27
O=C(NCc1cncc2c1CCN(C1CCOC1)C2)c1ccco1 (centres undefined) | -2.1
CCc1nc2n(n1)CC(NCCC(=O)Nc1cc(C)on1)CC2 (centres undefined) | -6.35
CCC(CNC(=O)N1CCOCC2(CCOCC2)C1)c1ccccc1 (centres undefined) | -5.59
Cc1cc(F)ccc1-n1cc(O)c(C(=O)NCC2(O)CCC2)n1 | 28.4
c1csc(-c2nc(CN3CCN(c4cnccn4)CC3)co2)c1 | -18.4
c1ccc(Cc2noc(CNC3CCc4ncnn4C3)n2)cc1 (centres undefined) | -5.32
COc1ccc2c(c1)OCC(Cc1ccc(N(C)C)nc1)C2 (centres undefined) | -4.83
CC(C)(C)n1ncc2c(=O)n(CC(=O)NCc3ccccc3Cl)cnc21 | -0.0412

SMILES | cytotoxicity at 70.5 h [%]
Cc1nn(CC(C)C)c(N(C)C)c1CNCc1ccccc1CO | -0.0473
O=C(Nc1ccccn1)C1CCN(Cc2cccc3c2OCCO3)CC1 | 27.9
CCC(CC)c1cc(CNC(=O)N2CCC(CO)CC2)on1 | -4.82
CCCc1nnc(N(C)CC2CCCN(CC)C2)o1 (centres undefined) | 15.4
CCn1cc(CN2CCCN(C(=O)c3ccc(C)o3)CC2)cn1 | 20.7
O=C(NC(c1ccccc1)c1cccnc1)C1CC1 (centres undefined) | -6.82
CC(C)COCC(NC(=O)c1cccnc1)c1ccco1 (centres undefined) | -9.01
Cc1cccc(-c2c[nH]c(C3CCCN3C(=O)c3cc(C)n[nH]3)n2)c1 (centres undefined) | -9.63
CC(Cn1ccnc1)NC(=O)NCc1cccnc1OC1CCCC1 (centres undefined) | -8.81
Cc1ccc([C@@H]2CN(C(=O)c3ccon3)C[C@H]2NC(=O)C2CC2)cc1 | -0.162
COc1cc(N2CCOC(c3ccc(F)cc3)C2)ncn1 (centres undefined) | -6.22
CCNc1ncc2c(n1)CN(c1ccc(C)c(C)c1)C2=O | -11.2
CN1CCCC(Cc2cncc(Br)c2)CC1 (centres undefined) | 0.975
CCC1CN(CCNC(C)=O)CCN1CCOC (centres undefined) | 2.28
CN1C(=O)C2(CCNCC2)c2cc(F)ccc21 | -4.69
CCNC(=O)C1(Cc2cc(-c3ccc(C)cc3)no2)CCCN(C)C1 (centres undefined) | -5.63
Cn1ncc2c1CCCN(C(=O)C1CC1)C2 | 14.3
COc1ccc(N(C(=O)c2ccccn2)C(C)C)cc1F | -3.02
Cc1cnc(CN2CCC(N(C)Cc3nnc(C)n3C)C2)cn1 (centres undefined) | -0.164
COc1ccc(F)cc1C(=O)N1CCCC(CNS(C)(=O)=O)C1 (centres undefined) | 1.51
CCc1ccc(Cn2nccc2NC(=O)C2CCS(=O)(=O)C2)cc1 (centres undefined) | -3.51
O=C(C1CCC1)N1CC[C@@H]2CN(Cc3cccnc3)S(=O)(=O)[C@@H]2CC1 | -4.67
CCCc1nc(N2CCCC(C)C2)c2c(n1)c(C)nn2CC (centres undefined) | -4

SMILES | cytotoxicity at 70.5 h [%]
Cc1ccc(NC2CCN(C(=O)CCOCC(F)(F)F)CC2)nn1 | -2.83
COc1ccc(OCC2CCCN(c3nc(CO)cs3)C2)cc1 (centres undefined) | -9.63
Cn1cccc1CN1CCC2(CCCN(C(=O)c3cnccn3)C2)C1 (centres undefined) | 17
CCN(C)CC(C)Cn1cnc(-c2ccccc2)c1C (centres undefined) | -15.1
O=C(CN1CC(c2nc(C3CC3)no2)C1)NCC1CCCO1 (centres undefined) | 3.91
O=C(Cn1cc(-c2ccccc2)ncc1=O)Nc1ccncc1 | -13.4
COCC(=O)N1CCC2(CC1)CC(COC)N(Cc1ccccn1)C2 (centres undefined) | -4.33
CC(NC(=O)CCc1ccsc1)c1ccc2c(c1)NC(=O)CO2 (centres undefined) | -6.31
CCn1cc(CN2CCN(C)C3(CCC(=O)N(CC4CC4)CC3)C2)cn1 (centres undefined) | 1.18
CCCN1CCN(C(=O)Nc2ccccc2Cl)[C@H]2CS(=O)(=O)C[C@H]21 | -4.21
O=C(CC1CCc2ccccc21)NC1(C(=O)O)CCOCC1 (centres undefined) | -14
Cc1cnc(CNC(=O)CC2CCc3ccccc32)cn1 (centres undefined) | -13.9
CCNc1ncc(C2CC(=O)Nc3c2cnn3Cc2ccncc2)cn1 (centres undefined) | 5.87
COc1ccc(CNC(=O)C(NC(=O)Cc2ccccc2)C(C)C)cn1 (centres undefined) | 30.6
CC(C)=CCC1(C(=O)O)CCCN(c2ccnc(N)n2)C1 (centres undefined) | 17
CCCNC(=O)Nc1ccc2c(c1)N(S(=O)(=O)CC)CC2 | -6.9
Cc1cccc(-c2nc(C)nn2CC(=O)NC(C)C2CC2)c1 (centres undefined) | -5.76
O=C(NCc1nccn1CCc1ccccc1)NCC1(O)CCC1 | 1.18
c1cc(CN2C[C@@H]3OCCN(CCN4CCCC4)[C@@H]3C2)ccn1 | -8.99
CSc1nc2ccsc2c(=O)n1CC(=O)NC1CCCC1 | -6.44
CNc1cncc(C2CCCN2Cc2ccccc2OCC(=O)O)n1 (centres undefined) | -8.8
O=C(NCC1CC1)C1CSCN1S(=O)(=O)c1ccccc1F (centres undefined) | 4.99
COCc1nnc(C(=O)N(C)Cc2cnc3ccccn23)o1 | -3.55

SMILES | cytotoxicity at 70.5 h [%]
CCc1csc(C2CCCN(C(=O)c3cc(C4CC4)[nH]n3)C2)n1 (centres undefined) | -7.48
O=C(CNC(=O)c1ccccc1Cl)Nc1nccs1 | 1.89
O=C(NCCc1cccnc1)C1CCCN(Cc2ccco2)C1 (centres undefined) | 16.1
CC(C)(C)n1ncc2c(=O)n(CC(=O)NCc3ccccc3)cnc21 | 7.32
NC(=O)c1cc(C2CCCN(CCCOc3ccccc3)C2)n[nH]1 (centres undefined) | -10.9
Cc1csc(N2CCN(Cc3cnc4c(c3)c(C)nn4C)CC2)n1 | -24.9
Cc1nn(C)c(N2CCOCC2)c1CNCc1ccnc(N(C)C)c1 | -5.34
CCCC(O)CN1CC(C)(C)CN(C(=O)c2ccccc2)CC1=O (centres undefined) | -10.1
Cc1nnc([C@@H]2C[C@H]3CN(C4CCC4)C[C@H]3O2)[nH]1 | -0.989
COc1cc(N2CC3(CCN(S(C)(=O)=O)C3)C2)ncn1 | -12
Cc1ccccc1C(NC(=O)CCCS(C)(=O)=O)C(C)(C)C (centres undefined) | 14.3
CC(C(=O)N1CCCCCC1)N1CCN(c2nccs2)CC1 (centres undefined) | 19.7
Cc1noc(C)c1S(=O)(=O)N1C[C@@H](C(=O)O)[C@H](c2ccccn2)C1 | -10.9
Cc1nn(C)cc1-c1cc(C(=O)N2CCc3ncc(Cl)cc3C2)no1 | 0.792
CC1CCCN(CC(=O)N2CCC(c3ncc4c(n3)CCNC4)CC2)C1 (centres undefined) | 1.79
CCc1cnc(CN(C(C)=O)C2CCN(CC3(O)CCCCC3)C2)o1 (centres undefined) | 13.4
CC(C)Cn1cnc2ccc(NC(=O)CCCn3cccn3)cc2c1=O | -2.92
Cc1cc(C2CCN(S(=O)(=O)N(C)C)CC2)ccn1 | 12.7
Cc1nc(C2CCCN2C(=O)COCCOc2ccccc2)no1 (centres undefined) | 8.74
CCS(=O)(=O)NCC1OCCc2cn(CCOC)nc21 (centres undefined) | -3.26
Cc1nc(Cn2cnc3c(c(Br)nn3C)c2=O)cs1 | 11.6
O=C(Cn1nc(-c2ccc(F)cc2)oc1=O)NCC1CCCO1 (centres undefined) | -3.49
